These results are taken from patent US20220324796A1, “ANTIBIOTIC COMPOUNDS” (The General Hospital Corporation, priority 2019, published 2022).

The subject of series [1] is exponential-phase S. aureus MW2. The series can be described thus: Killing kinetics assay. In kind it is cell-based. As for the experimental part:
Killing kinetics assay. An overnight culture of S. aureus MW2 ^−was diluted in 25 mL TSB to a concentration of ˜10^5 CFU/mL. The diluted culture was grown to exponential-phase (˜2×10^7 CFU/mL) at 37° C. with shaking at 200 rpm. 1 mL of the exponential-phase culture was added to each well of a 96-well assay block (Corning Costar 3960) containing 1 mL of 2× of the desired concentrations of antibiotics dissolved in pre-warmed TSB at 37° C. The assay block was then incubated at 37° C. with shaking at 200 rpm. At every hour, 400 μl cultures were removed, washed once with PBS, serially diluted and spot-plated onto tryptic soy agar (TSA, BD) plates. The plates were incubated at 37° C. overnight, and colonies were counted to determine the titer of the cultures. These experiments were conducted in biological triplicate.

Series [2] in a line: Hepatic and renal toxicity (ALT, BUN) in infected mice. The format is in vivo, mouse. As to conditions: 30 mg/kg i.p., every 12 h for 3 days. As for the experimental part: Deep-seated mouse thigh infection model. In vivo efficacy of bithionol alone or in combination with gentamicin against MRSA strain MW2 persisters was evaluated using a previously described neutropenic mouse thigh infection model with modifications. Six-week-old female CD-1 mice (20-25 g, Charles River Laboratories, Wilmington, Mass., USA) were rendered neutropenic by administering 150 mg/kg and 100 mg/kg of cyclophosphamide intraperitoneally (i.p.) at 4 days and 1 day before infection, respectively. On the day of infection, overnight culture of S. aureus MW2 were washed 3 times with sterile saline and diluted to ˜10^4 CFU/mL in saline. 50 μl of the diluted culture was injected to the right thigh of each mouse. Bithionol was dissolved in Kolliphor EL (Sigma-Aldrich, St Louis, Mo., USA)/ethanol 1:1 and then diluted 1:10 in saline to a final concentration of 30 mg/kg. […] The levels of alanine aminotransferase and blood urea nitrogen were analyzed with commercially available kits, following the manufacturer's protocol (Pointe Scientific, Canton, Mich., USA) to evaluate hepatic and renal toxicities. […] Statistical significance among each group in animal studies was analyzed by one-way ANOVA with post-hoc Tukey test using GraphPad Prism 7 (GraphPad Software, La Jolla, Calif., USA).

Series [3] has as its system MRSA MW2 biofilm persisters. The series can be described thus: Biofilm persister killing assay. The format is cell-based, S. aureus. As for the experimental part: Biofilm persister killing assay. An overnight culture of S. aureus MW2 cells was diluted 1:200 with TSB supplemented with 0.2% glucose and 3% NaCl. A 13 mm diameter Millipore mixed cellulose ester membrane (EMD Millipore GSWP01300) was placed at the bottom of each well of a 12-well assay plate (Falcon 353043). […] was added to each well and statically incubated at 37° C. for 24 h. The membranes were washed 3-times with PBS and transferred to a fresh 12-well plate, 1 mL PBS containing the desired concentration of antibiotics was added to each well, and then the plate was statically incubated at 37° C. for 24 h, The membranes were washed 3 times with PBS, placed in 2-mL microcentrifuge tubes containing 1 mL PBS, and sonicated in an ultrasonic bath (Fisher Scientific FS 30) for 10 min. The sonicated samples were serially diluted, spot-plated on TSA to enumerate the number of live cells. The experiment was conducted in biological triplicate.

Series [4] has as its system Gram-positive bacteria including S. aureus, Bacilius subtilis, and Enterococcus faecium. The conditions noted are these: previously described; cited from earlier work.
The test system of series [5] is MRSA BF4. The series can be described thus: MIC assay (micro-dilution). The format is cell-based, S. aureus. As to conditions: Staphylococcus aureus; daptomycin-intermediate resistant MRSA strain BF4. As for the experimental part:
Minimal inhibitory concentration (MIC) assay. The MICs of antibiotics were determined by the standard micro-dilution method recommended by the Clinical and Laboratory Standards Institute. MIC assays were conducted in biological triplicate.
(In broth dilution the organism is exposed to a series of concentrations in liquid medium.)

Converted amounts (≈) assume the structure as drawn.

What is called MIC is the smallest concentration in the dilution series that meets the test's criterion for growth inhibition. `Oc1c(Cl)cc(Cl)cc1Sc1cc(Cl)cc(Cl)c1O` [bithionol, 6,6′-thio-bis-(2,4-dichlorophenol)]: the “time to eradicate ~10^7 CFU/mL exponential-phase S. aureus MW2” value in series [1] (10 μg/mL (10× MIC)) is on record as at most 3 h. In series [1] (10× MIC, compared with daptomycin and vancomycin), the rate of killing entry is given as “comparable to daptomycin (at 10× MIC) but significantly faster than the killing kinetics of vancomycin”. In series [2], the “hepatic or renal toxicity (ALT and BUN)” value is recorded as “no signs of hepatic or renal toxicity”. For the same molecule, in series [3] (32 μg/mL (32× MIC)), the “time to complete eradication of biofilm persisters” value is at most 24 h. Further, the “concentration completely eradicating biofilm persisters” value in series [3] (24 h treatment) was 32 µg/mL. The “minimal inhibitory concentration (MIC)” value in series [4] is 8 to 15 µg/mL. For the same molecule, the MIC in series [5] was 0.5 µg/mL (≈ 1.4 µM).
